Results published in a melting point compilation (Tetko et al.; mined from patent text by program, amines drawn as free bases though some values may be those of a salt).

First: Cc1ccc(-c2ccccc2)cc1C#N
Second: CS(=O)(=O)Nc1c(-c2ccccc2)c(=O)[nH]c2cc(Cl)ccc12
The melting point of the first is lower: 71 to 73 °C for the first, 222 to 224 °C for the second.

First: CN(C)CCNc1ccc(-c2nn(CC(=O)O)c3ncccc23)cc1
Second: CN(C)CCNC(=O)c1cccc2c1c(C(=O)C(=O)NC1=CC(=O)OC1)cn2Cc1ccc(Cl)cc1
The melting point of the first is higher: 240 to 242 °C for the first, 225 to 227 °C for the second.

Compared with CCOC(=O)NC(C)C(=O)c1ccc(O)c(Cl)c1 (stereo not drawn), CC(=O)c1cnn(O)c1-c1ccc(C(=O)O)cc1C is higher in melting point: 106 to 108 °C for the first, > 250 °C for the second.

First: O=C(Nc1ccc2ccc(-c3cccc(F)c3)nc2n1)c1cccc(Br)c1
Second: CNc1nc(-c2cccc(NC(=O)Nc3ccccc3)c2)c2cc(OC)c(OC)cc2n1
The melting point of the first is lower: 208 °C for the first, 218 to 220 °C for the second.

Compared with Cc1c(CC2=C(O)CCC2=O)ccc2ccccc12, CN1C(=O)C=C[C@]2(C)c3ccc(-c4cccc5ccccc45)cc3CC[C@@H]12 is lower in melting point: 226 to 228 °C for the first, 172 to 173 °C for the second.

Compared with COC(=O)c1[nH]c(C)c(Cc2ccccc2)c1N, Cc1noc(-c2ccccc2)c1CCC(N)=O is higher in melting point: 143 to 144 °C for the first, 149 to 151 °C for the second.

First: Cc1c(C(O)C2CCc3c(c4ccccc4n3C)C2=O)ncn1C(c1ccccc1)(c1ccccc1)c1ccccc1 (stereo not drawn)
Second: Cc1cc2c(cc1C)C1(CO2)C(=O)N(C(c2ccccc2)c2ccccc2)c2ccccc21 (stereo not drawn)
The melting point of the first is lower: 141 to 147 °C for the first, 193 to 195 °C for the second.

First: Cc1oc(-c2ccccc2)nc1COc1ccc(Cn2cc(C(=O)O)c(-c3cccs3)n2)cc1
Second: Cc1cc(OCc2ccccc2)cc(OCCCc2ccccc2)c1C(=O)O
The melting point of the first is higher: 204 to 205 °C for the first, 109 to 111 °C for the second.

Compared with CCCCNc1cc(C(=O)O)cc(S(N)(=O)=O)c1Oc1ccc(S(N)(=O)=O)cc1, CN(C(CCn1c(=O)cc(Cl)[nH]c1=O)C(=O)NO)S(=O)(=O)c1ccc(Oc2ccncc2)cc1 (stereo not drawn) is lower in melting point: 265 °C for the first, 163 to 165 °C for the second.

First: CCOc1csc(N)c1C#N
Second: CCOc1ccccc1-c1ncc(C(N)=O)c(=O)[nH]1
The melting point of the first is lower: 145 to 146 °C for the first, 236 to 238 °C for the second.

First: CN1CCN(CCCNc2ncc3cc(-c4c(Cl)cccc4Cl)c(NC(=O)Nc4cccc5ccccc45)nc3n2)CC1
Second: c1cc(CN2CCCCC2)cc(OCCCNc2ncnc3ccccc23)c1
The melting point of the first is higher: 186 to 189 °C for the first, 111 °C for the second.

First: CC(C)c1cccc(C(C)C)c1NC(=O)CN1CCN(CCSc2nc3ccccc3s2)CC1
Second: CSCc1nc(C(C)(C)O)c(C(=O)O)n1Cc1ccc(-c2ccccc2-c2nnn[nH]2)cc1
The melting point of the first is lower: 170 to 171 °C for the first, 172 to 181 °C for the second.

Compared with COC(=O)c1cnn2c(C(F)(F)F)cc(Cl)nc12, CCOC(=O)c1cn(-c2ncns2)c2cc(F)c(F)cc2c1=O is higher in melting point: 126 to 127 °C for the first, 149 to 152 °C for the second.

First: CCC(C)S(=O)(=O)NN(CCC(=O)O)C(=O)c1ccc2nc(CCC3CCNCC3)[nH]c2c1 (stereo not drawn)
Second: CN(C)C=NS(=O)(=O)c1cc(CCNC(=O)C(F)(F)F)ccc1OCCOC(F)(F)F
The melting point of the first is higher: 180 to 185 °C for the first, 111 to 114 °C for the second.

Compared with C=CC(=O)NC(=O)NC(=O)CCl, O=C(/C=C/C=C/c1ccccc1[N+](=O)[O-])NCCCCCC(=O)NO is lower in melting point: 144 to 145 °C for the first, 131 to 133 °C for the second.

First: Nc1c2c(nc3ccccc13)C1C=CC2C1 (stereo not drawn)
Second: CN1CCC(c2nn(-c3ccc(N)cc3)c3ccccc23)CC1
The melting point of the first is higher: 123 °C for the first, 116 to 118 °C for the second.

First: CC(C)c1cc(Oc2ccc(Cl)cc2)nc(C(C)C)c1N=C=NC(C)(C)C
Second: CC(C)(C)CC(C)(C)c1ccc(Oc2cc3nc(-c4ccco4)oc3cc2[N+](=O)[O-])cc1
The melting point of the first is lower: 46 to 55 °C for the first, 146 to 148 °C for the second.

Compared with CNS(=O)(=O)c1ccc(N2CC(CO)OC2=O)cc1 (stereo not drawn), Cc1ccc(S(=O)(=O)OCC2CNC(=O)O2)cc1 (stereo not drawn) is lower in melting point: 164 to 166 °C for the first, 96 to 99 °C for the second.

First: CCc1c(Br)c2ccccn2c1C(=O)c1ccc(O)cc1
Second: CCC(O)(c1ccc(O)cc1O)c1ccccc1OC (stereo not drawn)
The melting point of the first is higher: 160 to 162 °C for the first, 141 to 142 °C for the second.

First: O=[N+]([O-])c1cccc2c(Cl)ccnc12
Second: O=[N+]([O-])c1ccc(Cl)c(O)c1
The melting point of the first is higher: 144 to 146 °C for the first, 115 to 117 °C for the second.

First: O=C(C=C(c1cc(Cl)cc(Cl)c1)C(F)(F)F)c1ccc(C(=O)NC2CCCO2)cc1 (stereo not drawn)
Second: O=C(Nc1nccs1)C(CC1CCCC1)c1cccc(C(F)(F)F)c1 (stereo not drawn)
The melting point of the first is higher: 140 to 146 °C for the first, 134 to 136 °C for the second.

First: CC1Cc2ccccc2C1=NO (stereo not drawn)
Second: CCN1Cc2cccc3scc(c23)S1(=O)=O
The melting point of the first is lower: 82 to 91 °C for the first, 156 °C for the second.

Compared with C=CCOc1cc(NCC)c(C(C)=O)cc1C(C)=O, COc1ccc(NC(=O)c2ccc(C)cc2O)cc1 is higher in melting point: 82 to 83 °C for the first, 185 to 186 °C for the second.

Compared with Nc1nc(N)c2ncn(COCCOCCO)c2n1, CC(C)(F)Cn1c(CO)nc2c(N)nc3cccnc3c21 is higher in melting point: 76 to 82 °C for the first, 240 to 241 °C for the second.

Compared with Cc1ccc(CC(=S)N[C@@H](Cc2ccccc2)C(=O)O)cc1, COc1ccc(C(CC(=O)c2ccccc2)C(=O)O)cc1 (stereo not drawn) is higher in melting point: 92 to 93 °C for the first, 157 to 158 °C for the second.

First: O=C(Cl)c1c(Cl)ccc2c1OCCO2
Second: CC(=O)OCCCc1nc(-c2ccc(Cl)cc2)co1
The melting point of the first is higher: 50 °C for the first, 37 to 37.5 °C for the second.

Compared with CCSc1cc(S(N)(=O)=O)sc1SCC, COc1ccc(CSc2ccc(S(=O)(=O)N=CN(C)C)s2)cc1 is higher in melting point: 82 to 84 °C for the first, 92 to 101 °C for the second.

First: COc1ccc(-c2cc(COS(C)(=O)=O)c(=O)n(CC=Cc3ccc(Cl)cc3)n2)cc1F
Second: COc1cccc2c1cc(C)n2Cc1ccc(F)cc1
The melting point of the first is higher: 136 °C for the first, 104 to 108 °C for the second.

First: CCOC(=O)C1(Cc2ccc(OC)c(OC)c2)C(=O)NCC1c1ccc(OC)c(OC)c1 (stereo not drawn)
Second: COc1cc2c(cc1OC)CC(N1CC(O)CC1=O)CC2 (stereo not drawn)
The melting point of the first is lower: 146 to 149 °C for the first, 178 to 179 °C for the second.

CCCc1nc(CO)c(C(=O)OCOC(=O)C(C)(C)C)n1Cc1ccc(-c2ccccc2-c2nnn[nH]2)cc1 and COc1ccc(Cn2c(S(=O)(=O)Cc3ccc(C)cn3)nc3cscc32)cc1 cannot be ordered by melting point: > 60 °C for the first, 148 to 150 °C for the second.

First: COc1cc(OC)cc(-c2ncoc2-c2ccc(OC(F)(F)F)c(O)c2)c1
Second: Cc1c([N+](=O)[O-])oc2ccc(-c3ccc(CC(=O)O)cc3)cc12
The melting point of the first is lower: 192 to 194 °C for the first, 229 to 230 °C for the second.

Compared with N#Cc1c(Br)cc(Br)c(CCC(=O)O)c1Br, CC(C)c1cc(C(C)C)c(CC#N)c(C(C)C)c1C#N is lower in melting point: 164 to 166 °C for the first, 98 to 101 °C for the second.

Compared with CCCOc1cc2c(=O)c3ccccc3sc2cc1Cl, O=C(O)C(=NOCc1ccccc1)c1csc2ccccc12 is higher in melting point: 101 to 102 °C for the first, 120 to 121 °C for the second.

First: CC(C)(N)c1ccc(-c2nc(Nc3ccc(-n4ccnn4)cc3)ncc2C#N)cc1
Second: COc1cc2c(Nc3ccc(Sc4nccn4C)c(Cl)c3)c(C#N)cnc2cc1N1CCC(N2CCCC2)CC1
The melting point of the first is lower: 139 to 140 °C for the first, 225 to 229 °C for the second.

First: CCOC(=O)Cc1c(C(=O)OCC)c(C)cn1CCO
Second: CCOC(=O)C(N)C=CCP(=O)(O)O (stereo not drawn)
The melting point of the first is lower: 133 to 135 °C for the first, 167 to 168 °C for the second.

First: CC(C)(C)Nc1c([N+](=O)[O-])cc([N+](=O)[O-])c2nc(C(F)F)[nH]c12
Second: Nc1ccc(OC(F)(F)C(F)F)cc1[N+](=O)[O-]
The melting point of the first is higher: 199 to 201 °C for the first, 83.9 to 84.4 °C for the second.

First: O=c1[nH]c2ccc(S(=O)(=O)O)cc2[nH]c1=O
Second: CCOc1ccc([N+](=O)[O-])c(C=C2NC(=O)NC2=O)c1
The melting point of the first is higher: > 300 °C for the first, 243 to 245 °C for the second.

Compared with O=c1cc(-c2ccccc2)oc2cc(OCCCCCCN3CCCCC3)cc(O)c12, CCOc1cc2oc(=O)c3c(c2cc1OCC)CCN(CCN1CCCCC1)C3 is higher in melting point: 103 °C for the first, 144 to 146 °C for the second.

First: CN(C(=O)N(C)c1ccc(CCl)cc1)c1ccc(CCl)cc1
Second: CN(c1ccc(I)cc1)S(C)(=O)=O
The melting point of the first is lower: 72 to 73 °C for the first, 106 to 107 °C for the second.

First: CC(C)N(C[C@H](O)[C@H](Cc1ccccc1)NC(=O)OCc1ccccc1)NC(=O)C(C)(C)C
Second: O=C(O)c1cc(CCNS(=O)(=O)c2ccccc2)c2cccccc1-2
The melting point of the first is lower: 132 to 134 °C for the first, 193 to 195 °C for the second.

Cc1noc(NS(=O)(=O)c2ccccc2-c2ncccn2)c1C and Cc1nnc(-c2ccccc2)c2nc(OCc3ncnn3C)c(C3CCC3)n12 cannot be ordered by melting point: 160 to 162 °C for the first, 160 °C for the second.

Compared with O=C(C(=O)N1CCCCC1)N1CCCCC1, N[C@@H](C/C(=C\C1CCCC1)C(=O)O)C(=O)O is higher in melting point: 88 to 90 °C for the first, 173 to 175 °C for the second.

Compared with CCCCCCCC/C=C\CCCCCCCC(=O)CCCNC(=O)CCNC(=O)C1OC(C)(C)OCC1(C)C (stereo not drawn), Cc1nc(-c2ccc(Cl)cc2Cl)sc1C(=O)NCCCCN1CCC(c2ccc3c(c2OCCO)CCCC3)CC1 is higher in melting point: 45 to 47 °C for the first, 122 to 124 °C for the second.

First: Cc1cc2c(=O)n3cc(C#N)ccc3nc2s1
Second: Cc1cccc(Oc2c[nH]c(=S)[nH]c2=O)c1
The melting point of the first is higher: 256 to 258 °C for the first, 210 °C for the second.

First: CCCOc1ccc(S(=O)(=O)N2CCN(C(C)=O)CC2)c(-c2nc3cc(N)c(N)cc3c(=O)[nH]2)c1
Second: CCOCc1nc2c(N)nc3ccccc3c2n1CCCc1cc(C)no1
The melting point of the first is higher: 177 to 180 °C for the first, 163 to 164 °C for the second.

First: Cc1c(F)c(N2CCC(n3cc(-c4ccccc4)nn3)C2)c(F)c2c1c(=O)c(C(=O)O)cn2C1CC1 (stereo not drawn)
Second: CCNC(=O)c1sc(SC)c2c1CCc1sc(-c3ccccc3)nc1-2
The melting point of the first is higher: 221 °C for the first, 211 to 212 °C for the second.

Compared with O=[N+]([O-])CCc1[nH]ccc1-c1ccc(I)cc1, S=c1[nH]c(-c2ccc(Br)cc2)c(-c2ccc(Br)cc2)[nH]1 is higher in melting point: 88 to 89 °C for the first, 288 °C for the second.

Compared with CCN(CC)CCCN1C(=O)NC(Cc2c[nH]c3ccc(OC)cc23)C1=O (stereo not drawn), Cc1ccc(S(=O)(=O)N2[C@H](CCCCc3nnnn3C)CC[C@@H]2c2ccc(F)cc2)cc1 (racemic) is lower in melting point: 136 °C for the first, 77 °C for the second.

Compared with Nc1nc(SCc2ccc3ccccc3c2)nc(O)c1CCO, CCNC(=O)c1ccc(F)cc1 is lower in melting point: 192 to 193 °C for the first, 73.2 to 76.3 °C for the second.

First: CC(=O)Cc1ccc2c(c1)C1(C)CCN(C)C1N2C (stereo not drawn)
Second: COc1cc(C(=O)NC2CCN(CC(F)(F)F)CC2)ccc1Nc1ncc2c(n1)N(C1CCCCC1)CC(F)(F)C(=O)N2C
The melting point of the first is lower: 115 to 125 °C for the first, 213 to 215 °C for the second.

Compared with CC(C)(O)Cn1cnc2c(N)nc3c(c21)CCCC3, CC[C@H](C)[C@H](Nc1nc(OC)ns1)C(=O)N1CCC[C@H]1C(=O)O is lower in melting point: 260 to 261 °C for the first, 112 to 114 °C for the second.

With O=P(O)(O)C1(P(=O)(O)O)CCN2C=CC=CC2=N1 the melting point was 80 °C.
